SMILES strings stand for the structures. Like-named read-outs stand apart in the source and are kept apart here.

This is an account of results in PMC10224544, “Synthesis, Structural Elucidation and Pharmacological Applications of Cu(II) Heteroleptic Carboxylates” (Pharmaceuticals, 2023).

Assay [1] addresses acetylcholinesterase (AChE) (Electrophorus electricus, UniProt O42275). As to the kind of experiment: biochemical. Type of assay: biochemical. Conditions: for inhibition at 62.5 µg/mL / inhibition at 125 µg/mL / inhibition at 250 µg/mL / inhibition at 500 µg/mL / inhibition at 1000 µg/mL: read-out: Inhibition of Acetylcholinesterase (%AChE Activity). As to the method: The synthesized compounds were evaluated for acetylcholinesterase (ACh) and butyrylcholinesterase (BCh) enzyme inhibitory activities.
(§1) The enzymes acetylcholinesterase (AChE) and butyrylcholinesterase (BChE) play an important role in the transfer of signals and physiological function. They assist acetylcholine to hydrolyze and produce choline and acetyl group in synaptic region. So, they are considered as targets in the management of Alzheimer’s disease. Herein, the compounds under study were evaluated for their potential to inhibit acetylthiocholine iodide (AChI) and butyrylthiocholine iodide (BChI) enzymes.
(§2) The well-known Ellman’s assay was implemented to evaluate the inhibitory potential using acetylthiocholine iodide (AChI) and butyrylthiocholine iodide (BChI) as substrates, respectively. The basic principle of the assay is the hydrolysis of acetylthiocholine iodide and butyrylthiocholine iodide by their corresponding enzymes, resulting in the formation of 5-thio-2-nitrobenzoate anion.
(§3) To carry out the assay, 0.1 M buffer solution with pH 8 was prepared as per the cited literature where the pH was adjusted using KOH (potassium hydroxide). Using the freshly prepared buffer and following the dilution, final concentrations of 0.03 U/mL for AChE (518 U/mg solid) and 0.01 U/mL for BChE (7–16 U/mg) were obtained. […] After that, the final solution of each of the AChE and BChE was prepared in distilled water in the presence of […] DTNB and were stored at 8 °C. The experiment was performed by taking 205 µL of inhibitor (tested compound) along with 5 µL of prepared solutions of enzymes, followed by the addition of 5 μL DTNB reagent. They were then incubated for about 15 min in a water bath at a temperature of 30 °C. Later on, 5 µL substrate solution was added to them which were subjected to absorption check at 412 nm. […] The temperature of the spectrophotometer was adjusted at 30 °C and then, following the reaction time of 4 min, the absorbance values were noted after regular intervals. The experiment was repeated, and change in absorption with time was used to calculate the percentage activity of enzyme and enzyme inhibitor [59]. The p values, or calculated probability levels, are categorized as: 5% (p < 0.05), 1% (p < 0.01) and 0.1% (p < 0.001). p < 0.05 means statistically significant and p < 0.001 means highly statistically significant.

Assay [2] concerns the target butyrylcholinesterase (BChE) (Equus caballus, UniProt P81908). Put plainly: biochemical. The conditions noted are these: for inhibition at 62.5 µg/mL / inhibition at 125 µg/mL / inhibition at 250 µg/mL / inhibition at 500 µg/mL / inhibition at 1000 µg/mL: read-out: inhibition of butyrylcholinesterase (% BChE activity). The procedure:
as §1, §2, §3

Assay [3] is described as follows: DPPH scavenging assay. Conditions: for DPPH Free Radical Scavenging Ability: mean ± S.E.M, n = 3. The source says: The antioxidant potential of the free acids and their Cu(II) carboxylates was explored via the DPPH method using ascorbic acid as a reference. The DPPH, with a single unpaired electron, is capable of accepting a hydrogen or electron and gives a strong absorption at 517 nm. The absorption generally decreases when it accepts a hydrogen or electron from an antioxidant, forming a stable molecule. The results given in Table 5 indicate that the compounds under study show a moderate level of antioxidant potential. This activity may be attributed to the various structural and electronic factors like coordination geometry, redox properties, chelate ring size, degree of unsaturation, etc.. The transfer of proton or electron from an antioxidant to DPPH results in the formation of species that undergo other reactions like coupling, fragmentation, and addition, which affect the rate and stoichiometry of the reaction.
The compounds under study were subjected to DPPH scavenging ability test as per cited literature. A 0.004% solution of reagent DPPH was added to the different concentrations of tested compounds (i.e., 125, 250, 500 and 1000 μg/mL) and the reaction mixture was incubated subsequently for about thirty minutes in dark. Ascorbic acid was used as positive control. The UV-3000 O.R.I. Germany was used to record the change in absorption of the reaction mixture at 517 nm and the percentage scavenging ability of the compounds under study was determined using formula: % scavenging activity =Absorbance of control−Absorbance of compounds /Absorbance of control×100
The experiments were repeated thrice. The GraphPad Prism® (version 4.0, Sandiego, CA, USA) was used to calculate the IC50 values.

A short description of assay [4]: Hydrogen peroxide scavenging assay. The conditions noted are these: for H2O2 free radical scavenging ability: mean ± S.E.M, n = 3. The procedure:
In addition to DPPH the ligand acids and their complexes were also evaluated for their peroxide scavenging ability test. Hydrogen peroxide (H2O2) is a biologically important, non-radical reactive oxygen species (ROS) that can influence several cellular processes. It is a weak oxidizing agent and can inactivate a few enzymes directly, usually via oxidation of essential thiol (-SH) groups. It can cross cell membranes rapidly, and inside the cell, H2O2 probably reacts with Fe^2+ (and possibly Cu^2+) ions to form the hydroxyl radical, which may be the origin of many of its toxic effects. It is, therefore, biologically advantageous for cells to control the amount of hydrogen peroxide that is allowed to accumulate.
The ligand acids and their Cu(II) carboxylates were further subjected to H2O2 scavenging ability test potential by following the procedure as per cited literature. A 2 mM solution of H2O2 was made in 50 mM phosphate buffer having a pH 7.4. In the next step, 0.1 mL of the screened compounds was added to the 0.3 mL (50 mM) of phosphate buffer, then 0.6 mL of H2O2 was added and the solution was vortexed. After following the incubation period of 10 min, the absorption was 230 nm in comparison to the blank.

Assay [5] in a line: DPPH scavenging assay. Conditions: Comp. Conc. 62.5 µg/mL; mean ± S.E.M, n = 3. In general terms: Loss of DPPH colour is used to gauge radical scavenging.

butyrylcholinesterase (BChE), sequence (P81908 whole entry): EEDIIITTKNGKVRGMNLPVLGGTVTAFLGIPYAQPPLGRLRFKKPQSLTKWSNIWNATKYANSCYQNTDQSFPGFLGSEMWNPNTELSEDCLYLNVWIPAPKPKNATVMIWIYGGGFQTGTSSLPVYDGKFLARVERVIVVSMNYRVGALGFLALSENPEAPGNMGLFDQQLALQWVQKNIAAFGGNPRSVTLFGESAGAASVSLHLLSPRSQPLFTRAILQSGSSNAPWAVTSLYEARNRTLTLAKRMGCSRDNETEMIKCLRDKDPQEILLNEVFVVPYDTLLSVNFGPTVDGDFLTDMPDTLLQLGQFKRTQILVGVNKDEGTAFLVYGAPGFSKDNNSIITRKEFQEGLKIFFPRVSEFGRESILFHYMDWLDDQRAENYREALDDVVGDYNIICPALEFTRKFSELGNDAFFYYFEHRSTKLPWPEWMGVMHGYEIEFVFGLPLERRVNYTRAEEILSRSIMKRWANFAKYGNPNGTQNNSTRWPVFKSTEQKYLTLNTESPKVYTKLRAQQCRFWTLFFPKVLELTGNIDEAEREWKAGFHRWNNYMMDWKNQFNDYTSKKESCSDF
acetylcholinesterase (AChE), sequence (O42275 24-633): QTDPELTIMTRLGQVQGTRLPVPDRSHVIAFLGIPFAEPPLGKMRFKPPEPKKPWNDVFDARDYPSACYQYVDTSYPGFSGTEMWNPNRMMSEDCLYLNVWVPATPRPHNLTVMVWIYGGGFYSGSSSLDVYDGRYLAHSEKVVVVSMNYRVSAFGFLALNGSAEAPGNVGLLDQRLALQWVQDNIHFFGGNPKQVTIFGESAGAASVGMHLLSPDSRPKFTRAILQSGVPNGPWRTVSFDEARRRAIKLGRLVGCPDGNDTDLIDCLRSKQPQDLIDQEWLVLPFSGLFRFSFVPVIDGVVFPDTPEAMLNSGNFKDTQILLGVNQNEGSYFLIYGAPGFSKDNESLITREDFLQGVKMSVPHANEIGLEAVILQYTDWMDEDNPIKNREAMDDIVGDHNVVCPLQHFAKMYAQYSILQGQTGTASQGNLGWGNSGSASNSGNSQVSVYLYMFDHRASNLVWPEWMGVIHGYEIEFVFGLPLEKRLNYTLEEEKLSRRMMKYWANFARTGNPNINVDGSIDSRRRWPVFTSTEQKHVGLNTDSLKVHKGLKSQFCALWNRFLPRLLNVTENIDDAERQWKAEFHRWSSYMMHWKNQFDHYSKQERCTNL

Regarding `O=C(O)Cc1cccc(Cl)c1` [L^2, 3-chlorophenyl acetic acid], in assay [1], half-maximal inhibition (IC50) was put at 234 µM; the inhibition (usually the change of the read-out against control, counted positive when it falls) at 62.5 µg/mL was found to be 50.35 ± 0.11%; the inhibition at 125 µg/mL came to 54.02 ± 0.24%; the inhibition at 250 µg/mL is 57.34 ± 0.35%. Further, in assay [1], the inhibition at 500 µg/mL is 62.29 ± 0.32% and the inhibition at 1000 µg/mL came to 65.39 ± 0.4%. In assay [2], the IC50 – broadly, the concentration that inhibits the measured activity by half – was 234 µM; the inhibition at 62.5 µg/mL stood at 58.15 ± 0.22%; the inhibition at 125 µg/mL came out at 63.4 ± 0.71%; the inhibition at 250 µg/mL amounted to 68.39 ± 0.35%. In addition, in assay [2], the inhibition at 500 µg/mL was 73.42 ± 0.12% and the inhibition at 1000 µg/mL stood at 77.73 ± 0.03%.
In the case of `N#Cc1ccncc1.N#Cc1ccncc1.O=C([O-])Cc1cccc(Cl)c1.O=C([O-])Cc1cccc(Cl)c1.O=C([O-])Cc1cccc(Cl)c1.O=C([O-])Cc1cccc(Cl)c1.[Cu+2].[Cu+2]` [Complex 5, Cu2(3-ClC6H4COO)4(4-CNPy)2], the “IC50, DPPH Free Radical Scavenging Ability” value in the assay “DPPH scavenging assay [3]” is 20.29 µg/mL. Further, the “DPPH Free Radical Scavenging Ability” value is reported as 64.78 ± 0.60 % in “DPPH scavenging assay [3]” (Comp. Conc. 125 µg/mL); 71.46 ± 0.53 % in the assay “DPPH scavenging assay [3]” (Comp. Conc. 250 µg/mL); 77.68 ± 0.63 % in “DPPH scavenging assay [3]” (Comp. Conc. 500 µg/mL); 85.72 ± 0.79 % in the assay “DPPH scavenging assay [3]” (Comp. Conc. 1000 µg/mL); 55.56 ± 0.52 % in “DPPH scavenging assay [5]”. In addition, in assay [4], the “IC50, H2O2 free radical scavenging ability” value worked out at 27.35 µg/mL. Besides, the “H2O2 free radical scavenging ability” value in assay [4] (Comp. Conc. 62.5 µg/mL) was 59.81 ± 0.65 %; in assay [4] (Comp. Conc. 125 µg/mL), 66.65 ± 0.78 %; in assay [4] (Comp. Conc. 250 µg/mL), 75.70 ± 0.62 %; in assay [4] (Comp. Conc. 500 µg/mL), 80.76 ± 0.63 %; in assay [4] (Comp. Conc. 1000 µg/mL) it was 84.83 ± 0.62 %. Moreover, the “IC50, Inhibition of Acetylcholinesterase” value in assay [1] is on record as 5 µg/mL. For the same compound, the “Inhibition of Acetylcholinesterase (%AChE Activity)” value in assay [1] (Comp. Conc. 62.5 µg/mL, n = 3) is 69.91 ± 1.30 %; in assay [1] (Comp. Conc. 125 µg/mL, n = 3), 71.76 ± 0.61 %; in assay [1] (Comp. Conc. 250 µg/mL, n = 3), 76.87 ± 1.27 %; in assay [1] (Comp. Conc. 500 µg/mL, n = 3), 82.13 ± 0.20 ^⸸ %; in assay [1] (Comp. Conc. 1000 µg/mL, n = 3) it was 89.20 ± 0.23 %. The “IC50, inhibition of butyrylcholinesterase” value in assay [2] was found to be 04 µg/mL. Further, the “inhibition of butyrylcholinesterase (% BChE activity)” value in assay [2] (Comp. Conc. 62.5 µg/mL, n = 3) worked out at 72.74 ± 0.61 %; in assay [2] (Comp. Conc. 125 µg/mL, n = 3) it was 76.54 ± 0.50 %; in assay [2] (Comp. Conc. 250 µg/mL, n = 3), 81.48 ± 0.64 %; in assay [2] (Comp. Conc. 500 µg/mL, n = 3), 86.86 ± 0.60 %; in assay [2] (Comp. Conc. 1000 µg/mL, n = 3), 91.62 ± 0.74 %.
With `O=C([O-])Cc1cccc(Cl)c1.O=C([O-])Cc1cccc(Cl)c1.O=C([O-])Cc1cccc(Cl)c1.O=C([O-])Cc1cccc(Cl)c1.Oc1ccncc1.Oc1ccncc1.[Cu+2].[Cu+2]` [Complex 6, Cu2(3-ClC6H4COO)4(4-OHPy)2], in “DPPH scavenging assay [3]”, the “IC50, DPPH Free Radical Scavenging Ability” value came out at 14.51 µg/mL. Further, the “DPPH Free Radical Scavenging Ability” value in “DPPH scavenging assay [3]” (Comp. Conc. 125 µg/mL) is 63.47 ± 0.49 %; in the assay “DPPH scavenging assay [3]” (Comp. Conc. 250 µg/mL), 68.75 ± 0.14 %; in the assay “DPPH scavenging assay [3]” (Comp. Conc. 500 µg/mL), 75.59 ± 0.30 %; in “DPPH scavenging assay [3]” (Comp. Conc. 1000 µg/mL), 80.85 ± 0.18 %; in the assay “DPPH scavenging assay [5]” it was 58.12 ± 0.34 %. The “IC50, H2O2 free radical scavenging ability” value in assay [4] is given as 10.65 µg/mL. The “H2O2 free radical scavenging ability” value in assay [4] (Comp. Conc. 62.5 µg/mL) is on record as 61.35 ± 0.18 %; in assay [4] (Comp. Conc. 125 µg/mL), 66.20 ± 0.15 %; in assay [4] (Comp. Conc. 250 µg/mL), 73.42 ± 0.11 %; in assay [4] (Comp. Conc. 500 µg/mL), 78.62 ± 0.17 %; in assay [4] (Comp. Conc. 1000 µg/mL), 83.53 ± 0.20 %. Moreover, the “Inhibition of Acetylcholinesterase (%AChE Activity)” value in assay [1] (Comp. Conc. 62.5 µg/mL, n = 3) stood at 58.74 ± 0.68 %; in assay [1] (Comp. Conc. 125 µg/mL, n = 3) it was 62.70 ± 1.25 %; in assay [1] (Comp. Conc. 250 µg/mL, n = 3), 67.05 ± 0.75 %; in assay [1] (Comp. Conc. 500 µg/mL, n = 3), 72.32 ± 1.06 %; in assay [1] (Comp. Conc. 1000 µg/mL, n = 3), 77.34 ± 0.98 %. The “IC50, inhibition of butyrylcholinesterase” value in assay [2] is listed as 42 µg/mL. For the same compound, the “inhibition of butyrylcholinesterase (% BChE activity)” value is reported as 57.00 ± 1.15 % in assay [2] (Comp. Conc. 62.5 µg/mL, n = 3); 61.67 ± 0.89 % in assay [2] (Comp. Conc. 125 µg/mL, n = 3); 65.00 ± 0.58 % in assay [2] (Comp. Conc. 250 µg/mL, n = 3); 72.03 ± 0.23 % in assay [2] (Comp. Conc. 500 µg/mL, n = 3); 75.33 ± 0.49 % in assay [2] (Comp. Conc. 1000 µg/mL, n = 3).
Consider `O=C(O)Cc1ccccc1Cl` [L^1, 2-chlorophenyl acetic acid], for which the inhibition at 62.5 µg/mL in assay [1] (Comp. Conc. 62.5 µg/mL, n = 3) amounted to 50.35 ± 0.11%; in assay [2] (Comp. Conc. 62.5 µg/mL, n = 3) it was 58.15 ± 0.22%. For the same compound, the inhibition at 125 µg/mL in assay [1] (Comp. Conc. 125 µg/mL, n = 3) is 54.02 ± 0.24%; in assay [2] (Comp. Conc. 125 µg/mL, n = 3), 63.4 ± 0.71%. Moreover, the inhibition at 250 µg/mL worked out at 57.34 ± 0.35% in assay [1] (Comp. Conc. 250 µg/mL, n = 3) and 68.39 ± 0.35% in assay [2] (Comp. Conc. 250 µg/mL, n = 3). Moreover, the inhibition at 500 µg/mL in assay [1] (Comp. Conc. 500 µg/mL, n = 3) was 62.29 ± 0.32%; in assay [2] (Comp. Conc. 500 µg/mL, n = 3) it was 73.42 ± 0.12%. In addition, the inhibition at 1000 µg/mL in assay [1] (Comp. Conc. 1000 µg/mL, n = 3) is 65.39 ± 0.4%; in assay [2] (Comp. Conc. 1000 µg/mL, n = 3), 77.73 ± 0.03%. The IC50 in assay [2] (read-out: IC50, inhibition of butyrylcholinesterase (converted)) was 258 µM.
